# Results reported in patent US20230027929A1, “MrgprX2 Antagonists and Uses Thereof” (Dermira, Inc., priority 2019, published 2023).
# Molecular target: T1, hMrgpMRGPRX2 (Homo sapiens, UniProt Q96LB1)
# T1 construct: expressed in transfected cells
# T1 sequence (Q96LB1 1-330): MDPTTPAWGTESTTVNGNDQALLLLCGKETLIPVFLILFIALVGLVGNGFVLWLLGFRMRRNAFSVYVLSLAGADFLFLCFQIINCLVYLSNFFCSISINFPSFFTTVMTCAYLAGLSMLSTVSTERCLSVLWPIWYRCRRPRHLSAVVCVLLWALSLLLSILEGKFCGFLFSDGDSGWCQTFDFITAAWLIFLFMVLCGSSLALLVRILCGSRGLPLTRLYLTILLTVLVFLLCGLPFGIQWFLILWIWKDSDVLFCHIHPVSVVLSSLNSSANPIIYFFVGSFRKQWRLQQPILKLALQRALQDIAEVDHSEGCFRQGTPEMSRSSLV
# Experiment: FLIPR intracellular calcium mobilization, antagonist activity in recombinant hMrgpMRGPRX2 expressing cells
# Format: cell-based
# Conditions: read-out: Human MrgprX2 Antagonist pIC50 (converted)
# From the text: Potent and selective hMrgpMRGPRX2 compounds have been generated from compounds identified during a high throughput screening (HTS) campaign and followed up with cycles of structure activity based medicinal chemistry efforts. These compounds were characterized in recombinant hMrgpMRGPRX2 expressing cells for their antagonist activity and the potency was confirmed in the human mast cell line LAD-2, where the target is endogenously expressed. The assays used to determine potencies are functional read-out looking at intracellular calcium mobilization using the FLIPR™ technology. In these FLIPR assays, we test the identified compounds using recombinant cellular systems expressing mouse MrgprB2, mouse MrgprA1, gerbil MrgpMRGPRX2 orthologue, Chinese hamster MrgpMRGPRX2 orthologue and cynomolgus monkey MrgpMRGPRX2 orthologue, respectively for orthologue activity.
row,SMILES,IC50
1,"CC1(C)CC1C(=O)Nc1cnc(-c2cc(F)cc(F)c2)cn1 (single isomer, unassigned) [Compound E231, N-[5-(3,5-difluorophenyl)pyrazin-2-yl]-2,2-dimethyl-cyclopropanecarboxamide]",102 nM
2,"CCN(C[C@@H](O)C(F)(F)F)C(=O)Nc1ccc(Oc2ccc(F)cc2F)cn1 (single isomer, unassigned) [Compound E267]",28.2 nM
3,"CC(C)(C#N)C(=O)Nc1ccc(Oc2cccc(F)c2)cn1 [Compound E001, 2-cyano-N-[5-(3-fluorophenoxy)-2-pyridyl]-2-methyl-propanamide]",398 nM
4,CC(C)C(=O)Nc1ccc(Oc2ccccc2)cn1 [Compound E002],501 nM
5,CC(C)C(=O)Nc1ccc(Oc2ccc(F)cc2)cn1 [Compound E003],316 nM
6,CC(C)C(=O)Nc1ccc(Oc2cccc(F)c2)cn1 [Compound E004],63.1 nM
7,CC(C)C(=O)Nc1ccc(Oc2ccccc2F)cn1 [Compound E005],79.4 nM
8,CC1(C(=O)Nc2ccc(Oc3cccc(F)c3)cn2)CCOCC1 [Compound E006],3160 nM
9,CC1(C(=O)Nc2ccc(Oc3ccccc3F)cn2)CCOCC1 [Compound E007],2510 nM
10,CC(C)C(=O)Nc1ccc(Oc2cccc(F)c2F)cn1 [Compound E009],79.4 nM
11,CC(C)C(=O)Nc1ccc(Oc2ccc(F)c(F)c2)cn1 [Compound E010],39.8 nM
12,CC1(C(=O)Nc2ccc(Oc3cccc(F)c3)cn2)CCOC1 (stereo not shown) [Compound E011],6310 nM
13,O=C(Nc1ccc(Oc2cccc(F)c2)cn1)C1(C(F)(F)F)CC1 [Compound E012],398 nM
14,CC(O)(C(=O)Nc1ccc(Oc2cccc(F)c2)cn1)C(F)(F)F (stereo not shown) [Compound E013],794 nM
15,CC(C)(CO)C(=O)Nc1ccc(Oc2cccc(F)c2)cn1 [Compound E014],3980 nM
16,CC1(C(=O)Nc2ccc(Oc3cccc(Cl)c3)cn2)CCOCC1 [Compound E015],25.1 nM
17,CC(C)C(=O)Nc1ccc(Oc2cccc(Cl)c2)cn1 [Compound E016],25.1 nM
18,CC(C)C(=O)Nc1ccc(Oc2cccc(C#N)c2)cn1 [Compound E018],6310 nM
19,CC(C)C(=O)Nc1ccc(Oc2ccc(F)c(C#N)c2)cn1 [Compound E019],7940 nM
20,CC(C)C(=O)Nc1ccc(Oc2ccnc(F)c2)cn1 [Compound E022],10000 nM
21,CC1(C)C(C(=O)Nc2ccc(Oc3ccc(F)c(F)c3)cn2)C1(C)C [Compound E025],2.51 nM
22,CC(C)(C#N)C(=O)Nc1ccc(Oc2ccc(F)c(F)c2)cn1 [Compound E026],2000 nM
23,CC1(C(=O)Nc2ccc(Oc3ccc(F)c(F)c3)cn2)CCOCC1 [Compound E027],3160 nM
24,O=C(CC1CCOCC1)Nc1ccc(Oc2ccc(F)c(F)c2)cn1 [Compound E030],7940 nM
25,CC1(C(=O)Nc2ccc(Oc3ccc(F)c(F)c3)cn2)CC1 [Compound E032],200 nM
26,CC(C)(C)C(=O)Nc1ccc(Oc2ccc(F)c(F)c2)cn1 [Compound E033],79.4 nM
27,CC(C)(F)C(=O)Nc1ccc(Oc2ccc(F)c(F)c2)cn1 [Compound E035],398 nM
28,CC1(C(=O)Nc2ccc(Oc3ccc(F)c(F)c3)cn2)CCOC1 (stereo not shown) [Compound E036],5010 nM

row,SMILES,IC50
1,COC(C)(C)C(=O)Nc1ccc(Oc2ccc(F)c(F)c2)cn1 [Compound E038],1000 nM
2,CC(C)(CO)C(=O)Nc1ccc(Oc2ccc(F)c(F)c2)cn1 [Compound E039],3980 nM
3,COCC(C)(C)C(=O)Nc1ccc(Oc2ccc(F)c(F)c2)cn1 [Compound E040],501 nM
4,CC1(C)C(C(=O)Nc2ccc(Oc3cc(F)cc(C#N)c3)cn2)C1(C)C [Compound E042],3.16 nM
5,O=C(Nc1ccc(Oc2ccc(F)c(F)c2)cn1)[C@H]1C[C@H]1C(F)(F)F [Compound E045],20 nM
6,N#C[C@@H]1C[C@@H]1C(=O)Nc1ccc(Oc2ccc(F)c(F)c2)cn1 [Compound E047],3160 nM
7,O=C(Nc1ccc(Oc2ccc(F)c(F)c2)cn1)[C@H]1C[C@@H]1C(F)(F)F [Compound E049],25.1 nM
8,CC(C)C(=O)Nc1ccc(Oc2cncc(F)c2)cn1 [Compound E051],3980 nM
9,Cc1nc(NC(=O)C2CC2(C)C)ccc1Oc1ccc(F)c(F)c1 (stereo not shown) [Compound E054],158 nM
10,CC1(C)C(C(=O)Nc2ccc(Oc3ccc(F)nc3)cn2)C1(C)C [Compound E056],5.01 nM
11,CC1(C)CC1C(=O)Nc1ccc(Oc2ccc(C#N)cc2)cn1 (stereo not shown) [Compound E057],1260 nM
12,CC1(C)C(C(=O)Nc2ccc(Oc3ccc(C#N)cc3)cn2)C1(C)C [Compound E058],31.6 nM
13,CC1(C)C(C(=O)Nc2ccc(Oc3ccnc(F)c3)cn2)C1(C)C [Compound E060],3.16 nM
14,CC1(C)C(C(=O)Nc2ccc(Oc3ccc(C#N)cc3F)cn2)C1(C)C [Compound E061],20 nM
15,CC1(C)C(C(=O)Nc2ccc(Oc3ccc(C#N)nc3)cn2)C1(C)C [Compound E063],1260 nM
16,CC1(C)C(C(=O)Nc2ccc(Oc3ccnc(C#N)c3)cn2)C1(C)C [Compound E065],355 nM
17,CC1(C)C(C(=O)Nc2ccc(Oc3cccnc3)cn2)C1(C)C [Compound E066],30.9 nM
18,CC(C)(C#N)CC(=O)Nc1ccc(Oc2ccc(F)c(F)c2)cn1 [Compound E069],1910 nM
19,CC1(C)C(C(=O)Nc2ccc(N3CCC(O)C3)cn2)C1(C)C (stereo not shown) [Compound E070],1050 nM
20,COCCOc1ccc(NC(=O)C2C(C)(C)C2(C)C)nc1 [Compound E071],1100 nM
21,CC1(C)CC1C(=O)Nc1ccc(Oc2ccnc(F)c2)cn1 (stereo not shown) [Compound E072],1910 nM
22,Cn1cc(Oc2ccc(NC(=O)C3C(C)(C)C3(C)C)nc2)cn1 [Compound E073],3.63 nM
23,CC1(C)C(C(=O)Nc2ccc(Oc3cn[nH]c3)cn2)C1(C)C [Compound E074],257 nM
24,CC1(C)C(C(=O)Nc2ccc(Oc3cc(F)cc(C(N)=O)c3)cn2)C1(C)C [Compound E075],501 nM
25,CC1(C)C(C(=O)Nc2ccc(Oc3ccc(C(N)=O)nc3)cn2)C1(C)C [Compound E076],1260 nM
26,"CNc1ccc(NC(=O)C2C(C)(C)C2(C)C)nc1 [Compound E079, 2,2,3,3-tetramethyl-N-[5-(methylamino)-2-pyridyl]cyclopropanecarboxamide]",1660 nM
27,"CC(C)(O)COc1ccc(NC(=O)C2C(C)(C)C2(C)C)nc1 [Compound E080, N-[5-(2-hydroxy-2-methyl-propoxy)-2-pyridyl]-2,2,3,3-tetramethyl-cyclopropanecarboxamide]",4370 nM

# Further lines, results first:
row,IC50,SMILES
1,79.4 nM,C[C@@H]1C[C@H]1C(=O)Nc1ccc(Oc2ccc(F)c(F)c2)cn1 (racemic) [Compound E048.1]
2,7.94 nM,"CC1(C)C[C@H]1C(=O)Nc1ccc(Oc2ccc(F)c(F)c2)cn1 (single isomer, unassigned) [Compound E078]"
3,6.31 nM,CC(C)C(=O)Nc1ccc(Oc2cc(F)cc(F)c2)cn1 [Compound E008]
4,79.4 nM,O=C(Nc1ccc(Oc2cc(F)cc(F)c2)cn1)C1CC1 [Compound E017]
5,10000 nM,N#Cc1cc(F)cc(Oc2ccc(NC(=O)C3CC3)nc2)c1 [Compound E020]
6,1580 nM,CC(C)C(=O)Nc1ccc(Oc2cc(F)cc(C#N)c2)cn1 [Compound E021]
7,3160 nM,N#CC1(C(=O)Nc2ccc(Oc3cc(F)cc(F)c3)cn2)CC1 [Compound E023]
8,2000 nM,O=C(Nc1ccc(Oc2ccc(F)c(F)c2)cn1)C1CCOCC1 [Compound E024]
9,200 nM,O=C(Nc1ccc(Oc2ccc(F)c(F)c2)cn1)C1CC1(F)F (stereo not shown) [Compound E028]
10,3.98 nM,CC1(C)CC1C(=O)Nc1ccc(Oc2ccc(F)c(F)c2)cn1 (stereo not shown) [Compound E029]
11,63.1 nM,O=C(Nc1ccc(Oc2ccc(F)c(F)c2)cn1)C1CCCC1 [Compound E031]
12,200 nM,O=C(Nc1ccc(Oc2ccc(F)c(F)c2)cn1)C1CC1 [Compound E034]
13,6310 nM,O=C(Nc1ccc(Oc2ccc(F)c(F)c2)cn1)C1CCOC1 (stereo not shown) [Compound E037]
14,158 nM,CC1(C)CC1C(=O)Nc1ccc(Oc2cc(F)cc(C#N)c2)cn1 (stereo not shown) [Compound E041]
15,3.98 nM,CC1(C)C[C@@H]1C(=O)Nc1ccc(Oc2ccc(F)c(F)c2)cn1 [Compound E043]
16,12.6 nM,O=C(Nc1ccc(Oc2ccc(F)c(F)c2)cn1)C1CC12CC2 (stereo not shown) [Compound E044]
17,398 nM,O=C(CC1CC1)Nc1ccc(Oc2ccc(F)c(F)c2)cn1 [Compound E046]
18,15.8 nM,C[C@@H]1C[C@@H]1C(=O)Nc1ccc(Oc2ccc(F)c(F)c2)cn1 [Compound E048]
19,398 nM,N#C[C@H]1C[C@@H]1C(=O)Nc1ccc(Oc2ccc(F)c(F)c2)cn1 [Compound E050]
20,501 nM,CC1(C)CC1C(=O)Nc1ccc(Oc2cncc(F)c2)cn1 (stereo not shown) [Compound E052]
21,6310 nM,O=C(Nc1ccc(Oc2ccc(F)c(F)c2)cn1)[C@@H]1CCCO1 [Compound E055]
22,200 nM,CC1(C)CC(C(=O)Nc2ccc(Oc3ccc(F)c(F)c3)cn2)C1 [Compound E059]
23,10 nM,CC1(C)CCC1C(=O)Nc1ccc(Oc2ccc(F)c(F)c2)cn1 (stereo not shown) [Compound E062]
24,263 nM,CC1(C)OCCC1C(=O)Nc1ccc(Oc2ccc(F)c(F)c2)cn1 (stereo not shown) [Compound E068]
